Source: a melting point compilation (Tetko et al.; mined from patent text by program, amines drawn as free bases though some values may be those of a salt)

| melting point | Structure (SMILES) |
| --- | --- |
| 90 °C | CC(C#N)c1ccc(C(=O)c2ccc(Cl)s2)cc1 (stereo not drawn) |
| 140 to 142 °C | CCOC(=O)/C=C/c1cc2nc(CC)n(CCc3ccccc3)c(=O)c2cc1F |
| 149 to 150 °C | Cc1ccc(C(=O)NC(Cc2ccc(C(F)(F)F)cc2)C(=O)c2ccc(F)cc2)c2ccccc12 (stereo not drawn) |
| 125 to 127 °C | CCOc1ccc(C(=O)[C@H]2CC=CC[C@H]2C(=O)O)cc1OCC (relative stereo) |
| 252 to 253 °C | O=Cc1ccc(O)c(CP(=O)(O)O)c1 |
| 124 °C | O=C1Oc2ccccc2Sc2ccccc21 |
| 110 to 112 °C | CCCCCCCCCCC(C)OS(=O)(=O)NC(=O)Nc1c(C(C)C)cccc1C(C)C (stereo not drawn) |
| 94 to 96 °C | COc1ccc(C(C)(C)CC(O)(C(=O)O)C(F)(F)F)cc1Br (stereo not drawn) |
| 142 to 144 °C | O=Cc1ccc(Cc2ccccc2)cc1 |
| 173 to 175 °C | Cc1cc2oc(=O)c3c(c2cc1C)CCNC3 |
| 99 to 100 °C | CCOCCOc1ccc(C(C)C)c(NC(=O)CN2CCN(CCCSc3nc4ccccc4o3)CC2)c1C(C)C |
| 150 to 152 °C | Cc1cccn2ccnc12 |
| 200 to 220 °C | Cc1ccc(-c2cc3ncnc(Nc4ccc5[nH]ccc5c4)c3s2)cc1 |
| 129 to 130 °C | COc1cc2c(c(-c3cccc(C)c3C)c1)OC(CN)C2 (stereo not drawn) |
| 190 to 194 °C | CC(=O)NCC1CN(c2ccc(N3CCN(C=O)CC3)c(F)c2)C(=O)O1 (stereo not drawn) |
| 190 to 192 °C | COC(=O)c1ccc2c(c1)[C@@H](N1CCCC1=O)[C@H](O)C(C)(C)O2 (relative stereo) |
| 72 to 74 °C | CCOc1nn(-c2cccc3c2OC(C)(C)C3)c(=O)o1 |
| 95 to 96.5 °C | COC(=O)c1cccnc1C(=O)c1ccc(F)cc1 |
| 186 °C | Cc1ccc(Cn2c(NC3CCNCC3)nc3cnccc32)o1 |
| 144 to 145 °C | COc1ccc(-n2c(C)nc3cnccc32)cc1OC1CCCC1 |
| 128 to 129 °C | CCc1cc(C)cc(C)c1CC(=O)O |
| 172 to 175 °C | O=C(CSc1ccccc1)NNC(=O)N1Cc2ccccc2Oc2ccc(Cl)cc21 |
| 153 to 154 °C | COC(=O)c1ccc(-n2c(C)nc3ccccc32)cc1 |
| 58 to 59 °C | CCN(CC)CC1=Cc2ccc(Cl)cc2S1(=O)=O |
| 157 to 160 °C | CC1(C)[C@@H](CNS(C)(=O)=O)CC[C@@]1(C)NCC(=O)N1C[C@@H](F)C[C@H]1C#N |
| 92 to 93 °C | CCn1c(=O)ccc2cnc(Nc3cccc(F)c3OC)nc21 |

| melting point | Structure (SMILES) |
| --- | --- |
| 192 to 193 °C | CCCCOc1nc(N)c2[nH]c(=O)n(CCCCN(CCN3CCCC3)S(=O)(=O)c3cccc(CC(=O)O)c3)c2n1 |
| 156 to 157 °C | COc1c(Cl)cc(F)c(-n2ncc(C(F)(F)F)cc2=O)c1N |
| 105 to 106 °C | CN(C)C=Cc1ncc([N+](=O)[O-])n1CCN1CCOCC1 |
| 159 to 160 °C | CCCCCCCCCCNC(=O)c1ccc(C(=O)NCCCCCCCCCC)c([N+](=O)[O-])c1 |
| 206 to 208 °C | O=P(O)(O)C(NCCCCOc1ccccc1)P(=O)(O)O |
| 125 to 126 °C | CC(C)(C)OC(=O)NC(=N)NC(=O)OCc1ccccc1 |
| 101 to 102 °C | CS(=O)(=O)c1ccc2c(c1)c1c(n2Cc2ccc(Cl)cc2)C(CC(=O)O)CCC1 (stereo not drawn) |
| 68 to 70 °C | CSCCC1NCCNC1=O (stereo not drawn) |
| 129 °C | CC(c1ccccc1)C(CS)C(=O)NCC(=O)O (stereo not drawn) |
| 120 to 122 °C | COC(=O)CC1CCc2ccc(OCc3ccc(C#N)cc3)cc2C1 (stereo not drawn) |
| 69.5 to 71.5 °C | COC(=O)CCCCCOc1ccc(NC(=O)OCCO)cc1 |
| 196 °C | Brc1cc(Br)cc(Cc2cc(Br)cc(Br)c2)c1 |
| 193 to 195 °C | CS(=O)(=O)c1ccc2c(c1)S(=O)(=O)NCN2CCF |
| 102 to 104 °C | CC(C)CCc1c(-c2ccc(S(C)(=O)=O)c(F)c2)cnn(-c2ccc(F)c(Cl)c2)c1=O |
| 162 to 166 °C | OC(CCc1ccccc1)c1cc2ccncc2[nH]1 (stereo not drawn) |
| 199 to 200 °C | O=S(=O)(c1ccc(Br)cc1)N1CCN(c2ccncc2)CC1 |
| 294 °C | O=C(O)c1cc2cc([N+](=O)[O-])cc(O)c2o1 |
| 93 to 94 °C | CCOC(=O)c1ccc2nc[nH]c2c1 |
| 119 to 121 °C | COc1c(C(c2ccccc2)c2ccccc2)ccc2ccccc12 |
| 178 °C | Cc1nc2n(c1C)CCCC2=O |
| 72 to 75 °C | C=CCNC(=O)c1c([Si](C)(C)C)sc2ccccc12 |
| 98 °C | N#Cc1cccc2c1CCC2O (stereo not drawn) |
| 211 to 212 °C | O=C1CC=Cc2ncncc21 |
| 135 to 136 °C | COc1ccc2c(=O)c(CSC)cn(C)c2c1 |
| 146 to 147 °C | O=C(NCC(=O)c1cccs1)c1ccccc1 |
| 135 °C | CCOC(=O)C(Cc1nc2ccccc2n1Cc1ccc([N+](=O)[O-])cc1)C(=O)OCC |

| melting point | Structure (SMILES) |
| --- | --- |
| 198 to 202 °C | O=C1CC2(CN1)CC(=O)c1cc(F)ccc12 (stereo not drawn) |
| 127 to 128 °C | COC(=O)CON=C(C(=O)O)C(=O)CCl |
| 204 to 209 °C | CONC(=O)Nc1ccc(-c2sc3c(c2CCl)c(=O)n(-c2ccc4c(c2)OCCO4)c(=O)n3Cc2c(F)cccc2F)cc1 |
| 228 to 230 °C | Cc1c(C(N)=O)oc2nn(Cc3ccccc3)c(C)c12 |
| 164 to 166 °C | CC(C)(C)OC(=O)Cc1n[nH]c(=O)c2ccccc12 |
| 160 to 162 °C | CCC(CC)c1ccc(Cl)c2nc3n(c12)CCCCN3c1ccc(Cl)cc1Cl |
| 173 to 174 °C | COc1ccc2c(c1)c(CN(O)C(=O)N(C)C)c(C)n2C(=O)c1ccc(Cl)cc1 |
| 214 °C | O=C(N[C@H]1CC[C@H](CCN2CCN(c3nccc4c3OCC4)CC2)CC1)c1ccc2c(c1)OCO2 |
| 180 to 181 °C | Cc1ccc(S(=O)(=O)Nc2cccc(CCC(=O)c3cnc4sc(C)c(C)n34)c2)cc1 |
| 95 to 97 °C | CCCCNc1c(C(=O)OCC)cnc2nn(C)cc12 |
| 124 to 126 °C | CCOC1CCN(c2nnc(-c3ccc(C)cc3)c(-c3ccc(C)cc3)n2)CC1 |
| 141 to 143 °C | CC(=O)Oc1ccccc1C(=O)ON(C(N)=O)C(C)c1cc2ccccc2s1 (stereo not drawn) |
| 174 to 182 °C | CNc1cc(Nc2ccc(OC)cc2)ncn1 |
| 178 to 181 °C | CN(C)c1ccc(-c2cc3ccccc3o2)cc1 |
| 220 to 222 °C | CN1C(=O)C(C(=O)Nc2ccc(Cl)c(C(F)(F)F)c2)S(=O)(=O)c2ccc(Cl)cc21 (stereo not drawn) |
| 162 to 163 °C | O=C(O)COc1c(Br)cc(C(=O)c2c(Cc3ccccc3)sc3ccccc23)cc1Br |
| 198 to 199 °C | COc1ccc2c(c1)c(CC(=O)N(O)C(C)C)c(C)n2C(=O)c1ccc(Cl)cc1 |
| 90 °C | CCCCCc1ncc(C(=O)O)s1 |
| 65 to 69 °C | CC(C)(C)c1nc2cc(Cl)c([N+](=O)[O-])cc2s1 |
| 146 to 148 °C | CCCN1CC(c2ccc(S(C)(=O)=O)cc2)=C(c2ccc(Cl)cc2)C1=O |
| 203 to 206 °C | CCc1nc2c(N)nc3ccccc3c2n1CCCCNC(=O)c1ccccc1 |
| 268 to 269 °C | CN1CCN(C2=Nc3ccccc3C(O)(c3ccccc3)C2(C)C)CC1 (stereo not drawn) |
| 263 °C | N#Cc1c(N2CCN(C(=O)c3cccs3)CC2)c2cccnc2n(Cc2ccccc2)c1=O |
| 165 to 167 °C | COc1ccc(C(=O)Nc2ccccc2)cc1NCc1ccc(F)cc1 |
| 147 to 149 °C | CC(Oc1ncn(-c2cccc(C(F)(F)F)c2)n1)C(N)=O (stereo not drawn) |
| 155 °C | CCOC(=O)CN1CCN(CCOc2cc3c(Nc4cccc(Br)c4)ncnc3cc2OC)CC1 |

| melting point | Structure (SMILES) |
| --- | --- |
| 155 to 156 °C | COc1ccc(Cl)cc1C(=O)N(CCCC(=O)O)c1ccc(OC)c(-c2ccccc2)c1 |
| 120 °C | Cc1cc(-c2cncc(OC3SCC(O)C(O)C3O)c2)ccn1 (stereo not drawn) |
| 201 to 203 °C | CC1=CC(c2cccc(Cl)c2)C2=C(CCCC2=O)N1 (stereo not drawn) |
| 191 to 192 °C | C=CCn1c(=O)c2[nH]c(C34CC5CC(CC3C5)C4)nc2n(CCC)c1=O |
| 47 to 52 °C | CCOC(=O)C(CCc1ccccc1)N[C@H]1CSC(c2ccccc2)N(CC(=O)O)C1=O (stereo partly drawn) |
| 101 to 102 °C | COC(=O)[C@@H]1COC(=S)N1Cc1ccccc1 |
| 138 to 141 °C | Cc1ccc(-c2ccc(C)cc2[N+](=O)[O-])c([N+](=O)[O-])c1 |
| 182 to 185 °C | CCOCc1nc2c(N)nc3ccc(OCc4ccccc4)cc3c2n1CCCCNS(C)(=O)=O |
| > 300 °C | Oc1nc2ccc3c(Br)cccc3c2nc1O |
| 175 to 182 °C | C(=C\c1cc(/C=C/c2ccc3cc[nH]c3c2)n[nH]1)/c1ccc(Oc2ccccc2)cc1 |
| 158 to 160 °C | O=C(O)CCc1ccc(C(c2cc(F)ccc2F)S(=O)(=O)c2ccc(Cl)cc2)nc1 (stereo not drawn) |
| 155 to 156 °C | Oc1cccc2c1c1cccc(F)c1n2Cc1ccccc1 |
| 163 to 166 °C | COc1ccc2cc(C3CCN(C[C@H](O)COc4cccc5sc(-c6ncc(C)o6)cc45)CC3)ccc2c1 |
| 172 °C | CCCCOc1c(CNC(=O)OC(C)(C)C)n(CC(C)C)c(=O)c2ccc(-c3nc(C(=O)OCC)cs3)cc12 |
| 302 to 304 °C | COc1ccc2c(ccn3c(=O)c(C(=O)O)cnc23)c1 |
| 117 to 118 °C | CN(C)CCOc1cccc2c1c1cccc3c1n2C(c1ccccc1)CO3 (stereo not drawn) |
| 195 to 197 °C | COC(=O)N(C)CCc1ccc2[nH]cc(S(=O)(=O)c3ccccc3)c2c1 |
| 153 to 155 °C | Cc1ccc(COc2cccc(C(=O)Nc3ccc(CN4CCCCC4)cc3)c2)cc1 |
| 208 to 210 °C | CCOCc1nc2c(N)nc3ccccc3c2n1CC1(OCCS(C)(=O)=O)CCN(C(C)=O)CC1 |
| 89 to 90 °C | Cc1cccc(C)c1N(CCCc1cccnc1)C(=O)Cn1ccnc1C |
| 203 to 204 °C | Cc1cc2c(C=O)c3ccccc3c(C=O)c2cc1C |
| 119 to 120 °C | Nc1ccc(C(=O)OC2CCN(Cc3ccccc3)CC2)cc1 |
| 97 to 99 °C | CC(c1ccccc1)n1cncc1C#N (single isomer, unassigned; (+)) |

| Structure (SMILES) | melting point |
| --- | --- |
| COc1ccc(C2(CCN3CCC(C(=O)c4nc5ccccc5[nH]4)CC3)CCN(C(=O)c3cc(OC)c(OC)c(OC)c3)C2)cc1OC (stereo not drawn) | 113 to 116 °C |
| Cc1noc(C2CN3CCC2CC3)n1 (stereo not drawn) | 112 to 115 °C |
